Like-named read-outs stand apart in the source and are kept apart here.
Key:
[1] = Multiple dose study: veterinary examination, haematology and serum biochemistry; settings: 0.6 mg/kg every 12 hours for 14 days; except serum cholesterol
Experimental: Six foals were available for inclusion in this part of the study and were randomly assigned to treatment (four foals) or control groups (two foals). […] To ensure foals were recruited into the study within 4 weeks of birth, the study was performed twice, with 2 treated and one control foal in each replicate.
Foals were examined twice daily for the duration of the study. Staff responsible for veterinary examination of foals were blinded to treatment.
Peripheral blood samples were submitted for routine haematology and serum biochemistry at a commercial laboratory (Idexx Laboratories, Rydalmere, NSW) twice weekly (treatment days 0, 2, 6, 9, 13 and 16). Gastroscopy and urine analysis (Dip Stik and urine enzyme analysis1) were performed weekly on all foals.

[2] = adult horses, cited from earlier work
[3] = adult horses, cited from earlier work; remark: listed apart in the source
[4] = Faecal occult blood testing with guaiac-based slides (Hemoccult Sensa); format: in vivo; settings: treated and control foals, all occasions
Experimental: Faecal occult blood testing using guaiac-based slides (Hemoccult Sensa, Beckman Coulter Australia Pty Ltd, Gladesville, NSW) was evaluated for the detection of gastrointestinal bleeding in treated and control foals. This technique has been reported as a sensitive method for identifying gastric or right dorsal colon ulceration in adult horses (Pellegrini 2005). Faecal samples were collected on DSP days from all foals and processed according to the manufacturer's instructions. Tests were negative for blood (haemoglobin) on all occasions.

[5] = Multiple dose study: gastroscopy; format: in vivo, foals
[6] = Multiple dose study: peak and trough plasma meloxicam concentrations; format: in vivo, foals
Experimental: Blood for ‘trough’ serum levels was collected from foals immediately prior to administration of morning treatment. ‘Peak’ plasma concentrations were determined from blood samples collected 2 hours following administration of the morning treatment (as per the schedule above).

[7] = in vivo, 0.6 mg/kg
[8] = current study, foals, single oral dose 0.6 mg/kg, mean ± SD
[9] = Bioequivalence study (CML039) Reference
[10] = Bioequivalence study (CML039) Test

Haematology and serum biochemistry, treated vs control foals [1]: no significant differences
Faecal occult blood (haemoglobin) [4]: negative
Gastroscopy finding, margo plicatus of a treated foal (FIG. 18) ([5]; Day 7 of multiple dose study): normal margo plicatus
Gastroscopy finding, treated foal F8 (FIG. 21) ([5]; Day 7 of multiple dose study, erythemia already present before single dose): superficial erosions of squamous mucosa
Accumulation of drug in serum ([6]; foals, 0.6 mg/kg by mouth every 12 hours for 14 days): did not appear to accumulate
concentration at 14 days ([6]; horse, in vivo, foals less than 6 weeks, 0.6 mg/kg by mouth every 12 hours): 100 to 1000 ng/mL
concentration at 2 h ([6]; horse, in vivo, foals, 0.6 mg/kg by mouth every 12 hours for 14 days, 2 h after morning dose, read-out: Peak serum concentrations with repeated dosing): 500 to 1200 ng/mL
Albumin, mean post-Tx (±sem) ([7]; po): 29 (±1) g/L
Creatinine, median post-Tx ([7]; po): 0.09 mmol/L
Glucose, mean post-Tx (±sem) ([7]; po): 8.8 (±0.6) mmol/L
Haemoglobin, mean post-Tx (±sem) ([7]; po): 123 (±4) g/L
PCV, mean post-Tx (±sem) ([7]; po): 35 (±1) %
Potassium, median post-Tx ([7]; po): 4.0 mmol/L
Sodium, mean post-Tx (±sem) ([7]; po): 138 (±1) mmol/L
Urea, mean post-Tx (±sem) ([7]; po): 2.1 (±0.1) mmol/L
Area under curve [8]: 3870.3 ng/mL/h
SMILES: Cc1cnc(NC(=O)C2=C(O)c3ccccc3S(=O)(=O)N2C)s1 [meloxicam]
Cmax ([2]; Lees et al 1991 (IV administration)): 9230 ng/mL
Area under curve ([2]; Lees et al 1991): 14530 ng/mL/h
Cmax ([2]; Little et al 2007 (IV administration)): 9780 ng/mL
Area under curve ([2]; Little et al 2007): 33440 ng/mL/h
Cmax (oral admin) ([2]; Toutain et al 2004b): 2580 ng/mL
Bioavailability (fasted) ([2]; fasted, Toutain et al 2004b): 85.3
Bioavailability (fed) ([2]; fed, Toutain et al 2004b): 95.9
Area under curve [3, 9]: 10752.4 ng/mL/h
Cmax (oral admin) [3, 9]: 777.5 ng/mL
Tmax (oral admin) [3, 9]: 3.8 h
Area under curve [3, 10]: 11281.0 ng/mL/h
Tmax (oral admin) [3, 10]: 2.6 h
Gastroscopy finding, margo plicatus of same treated foal (FIG. 19) ([5]; Day 14 of multiple dose study): small, well circumscribed and very superficial ulcer
Gastric mucosal damage on gastroscopic examination ([5]; all foals, 0.6 mg/kg every 12 hours for 14 days): failed to identify evidence of significant gastric mucosal damage
Gastroscopy finding, treated foal F8 (FIG. 22) ([5]; following 14 days of treatment): no evidence of ongoing mucosal ulceration
Adverse effects after a single oral dose (physical examination) [7]: no adverse effects

From patent US20110212948A1 (priority 2008, published 2011)
